Results from PMC7758046, “Novel piperazine–chalcone hybrids and related pyrazoline analogues targeting VEGFR-2 kinase; design, synthesis, molecular docking studies, and anticancer evaluation” (Journal of Enzyme Inhibition and Medicinal Chemistry, 2020).

What was measured:
Experiment in all cases: NCI-60 single-dose anticancer screen
Type in all cases: cell-based, human
[1] = test system: COLO 205 (Colon cancer); details: 10 µM single dose
Description: (§1) Six compounds were selected by the NCI, according to NCI’s DTP selection guidelines, for evaluation of their anticancer activity at a single-dose of 10 µM against 60 human tumours cell lines.
(§2) In vitro cytotoxicity was performed in NCI according to reported method.

[2] = test system: HOP-62 (Non-small cell lung cancer); details: 10 µM single dose
Description: as §1, §2

[3] = test system: SK-MEL-5 (Melanoma); details: 10 µM single dose
Description: as §1, §2

[4] = test system: NCI-H322M (Non-small cell lung cancer); details: 10 µM single dose
Description: as §1, §2

[5] = test system: NCI-H23 (Non-small cell lung cancer); details: 10 µM single dose
Description: as §1, §2

[6] = test system: MALME-3M (Melanoma); details: 10 µM single dose
Description: as §1, §2

[7] = test system: SNB-75 (CNS cancer); details: 10 µM single dose
Description: as §1, §2

[8] = test system: CCRF-CEM (Leukaemia); details: 10 µM single dose
Description: as §1, §2

[9] = test system: UACC-62 (Melanoma); details: 10 µM single dose
Description: as §1, §2

[10] = test system: K-562 (Leukaemia); details: for cell growth promotion: 10 µM single dose
Description: as §1, §2

[11] = test system: SR (Leukaemia); details: 10 µM single dose
Description: as §1, §2

[12] = test system: CAKI-1 (Renal cancer); details: 10 µM single dose
Description: as §1, §2

[13] = test system: OVCAR-4 (Ovarian cancer); details: 10 µM single dose
Description: as §1, §2

[14] = test system: OVCAR-8 (Ovarian cancer); details: 10 µM single dose
Description: as §1, §2

[15] = test system: HT29 (Colon cancer); details: for cell growth promotion: 10 µM single dose; for inhibition at 10 µM: Homo sapiens, HT-29, 10 µM single dose, read-out: cell growth inhibition
Description: as §1, §2

[16] = test system: MDA-MB-435 (Melanoma); details: 10 µM single dose
Description: as §1, §2

[17] = test system: TK-10 (Renal cancer); details: 10 µM single dose
Description: as §1, §2

[18] = test system: RXF 393 (Renal cancer); details: 10 µM single dose
Description: as §1, §2

[19] = test system: SF-539 (CNS cancer); details: 10 µM single dose
Description: as §1, §2

[20] = test system: SNB-19 (CNS cancer); details: 10 µM single dose
Description: as §1, §2

[21] = test system: SW-620 (Colon cancer); details: 10 µM single dose
Description: as §1, §2

[22] = test system: EKVX (Non-small cell lung cancer); details: 10 µM single dose
Description: as §1, §2

[23] = test system: MDA-MB-468 (Breast cancer); details: 10 µM single dose
Description: as §1, §2

[24] = test system: UACC-257 (Melanoma); details: 10 µM single dose
Description: as §1, §2

[25] = test system: KM12 (Colon cancer); details: 10 µM single dose
Description: as §1, §2

[26] = test system: UO-31 (Renal cancer); details: 10 µM single dose
Description: as §1, §2

[27] = test system: A549/ATCC (Non-small cell lung cancer); details: 10 µM single dose
Description: as §1, §2

[28] = test system: U251 (CNS cancer); details: 10 µM single dose
Description: as §1, §2

[29] = test system: SF-295 (CNS cancer); details: 10 µM single dose
Description: as §1, §2

[30] = test system: SK-MEL-28 (Melanoma); details: 10 µM single dose
Description: as §1, §2

[31] = test system: RPMI-8226 (Leukaemia); details: 10 µM single dose
Description: as §1, §2

[32] = test system: NCI-H522 (Non-small cell lung cancer); details: 10 µM single dose
Description: as §1, §2

[33] = test system: MCF7 (Breast cancer); details: 10 µM single dose
Description: as §1, §2

[34] = test system: M14 (Melanoma); details: 10 µM single dose
Description: as §1, §2

[35] = test system: ACHN (Renal cancer); details: 10 µM single dose
Description: as §1, §2

[36] = test system: OVCAR-3 (Ovarian cancer); details: 10 µM single dose
Description: as §1, §2

[37] = test system: HCC-2998 (Colon cancer); details: 10 µM single dose
Description: as §1, §2

[38] = test system: HS 578T (Breast cancer); details: 10 µM single dose
Description: as §1, §2

[39] = test system: SN12C (Renal cancer); details: 10 µM single dose
Description: as §1, §2

[40] = test system: A498 (Renal cancer); details: 10 µM single dose
Description: as §1, §2

[41] = test system: PC-3 (Prostate cancer); details: 10 µM single dose
Description: as §1, §2

[42] = test system: NCI-H460 (Non-small cell lung cancer); details: 10 µM single dose
Description: as §1, §2

[43] = test system: MOLT-4 (Leukaemia); details: 10 µM single dose
Description: as §1, §2

[44] = test system: SK-MEL-2 (Melanoma); details: 10 µM single dose
Description: as §1, §2

[45] = test system: OVCAR-5 (Ovarian cancer); details: 10 µM single dose
Description: as §1, §2

[46] = test system: SF-268 (CNS cancer); details: 10 µM single dose
Description: as §1, §2

[47] = test system: NCI/ADR-RES (Ovarian cancer); details: 10 µM single dose
Description: as §1, §2

[48] = Homo sapiens, read-out: cell growth inhibition

In the case of Fc1cnccc1C1CC(c2ccc(N3CCNCC3)cc2)=NN1 (stereo not shown) [VIc, 1-(4-(5-(3-Fluoropyridin-4-yl)-4,5-dihydro-1H-pyrazol-3-yl)phenyl) piperazine], the cell growth promotion [1] is reported as 95.69%, the cell growth promotion [2] is reported as 83.16% and the cell growth promotion [3] is reported as 85.78%. It also gave a cell growth promotion [4] of 89.29%, a cell growth promotion [5] of 83.85% and a cell growth promotion [6] of 93.43%. For the same molecule, the cell growth promotion [7] was 101.50%, the cell growth promotion [8] was 80.81% and the cell growth promotion [9] was 81.93%. The cell growth promotion [10] was 77.92%, the cell growth promotion [11] was 90.38% and the cell growth promotion [12] was 80.62%. For the same molecule, the cell growth promotion [13] was 108.25%, the cell growth promotion [14] was 95.06% and the cell growth promotion [15] was 60.16%. The inhibition at 10 µM [15] was 39.8%, the cell growth promotion [16] was 105.18% and the cell growth promotion [17] was 122.80%. For the same molecule, the cell growth promotion [18] was 104.89%, the cell growth promotion [19] was 104.39% and the cell growth promotion [20] was 97.45%. For the same molecule, the cell growth promotion [21] was 93.46%, the cell growth promotion [22] was 91.04% and the cell growth promotion [23] was 114.26%. For the same molecule, the cell growth promotion [24] was 83.07%, the cell growth promotion [25] was 96.23% and the cell growth promotion [26] was 77.18%. For the same molecule, the cell growth promotion [27] was 76.20%, the cell growth promotion [28] was 95.06% and the cell growth promotion [29] was 98.00%. It also gave a cell growth promotion [30] of 115.80%, a cell growth promotion [31] of 92.51% and a cell growth promotion [32] of 81.93%. For the same molecule, the cell growth promotion [33] was 73.03%, the cell growth promotion [34] was 95.86% and the cell growth promotion [35] was 99.87%. The cell growth promotion [36] was 98.79%, the cell growth promotion [37] was 101.72% and the cell growth promotion [38] was 89.15%. It also gave a cell growth promotion [39] of 89.56%, a cell growth promotion [40] of 97.17% and a cell growth promotion [41] of 70.34%. The cell growth promotion [42] was 94.92%, the cell growth promotion [43] was 74.15% and the cell growth promotion [44] was 92.72%. It also gave a cell growth promotion [45] of 111.45%, a cell growth promotion [46] of 107.32% and a cell growth promotion [47] of 106.03%.
With O=C(C=Cc1cccc(F)c1)c1ccc(N2CCNCC2)cc1 [Vd, 3-(3-Fluorophenyl)-1-(4-(piperazin-1-yl)phenyl)prop-2-en-1-one] the cell growth promotion [1] was 96.91%, the cell growth promotion [2] was 80.17% and the cell growth promotion [3] was 76.85%. For the same molecule, the cell growth promotion [4] was 75.26%, the cell growth promotion [5] was 77.30% and the cell growth promotion [6] was 94.15%. For the same molecule, the cell growth promotion [7] was 85.44%, the cell growth promotion [8] was 58.18% and the inhibition at 10 µM [8, 48] was 41.8%. It also gave a cell growth promotion [9] of 79.23%, a cell growth promotion [10] of 16.55% and an inhibition at 10 µM ([10]; Homo sapiens, K562, 10 µM single dose, read-out: cell growth inhibition) of 83.5%. It also gave a cell growth promotion [11] of 55.72%, an inhibition at 10 µM [11, 48] of 44.3% and a cell growth promotion [12] of 68.63%. For the same molecule, the cell growth promotion [13] was 80.53%, the cell growth promotion [14] was 67.16% and the cell growth promotion [15] was 30.44%. For the same molecule, the inhibition at 10 µM [15] was 69.6%, the cell growth promotion [16] was 94.27% and the cell growth promotion [17] was 114.19%. It also gave a cell growth promotion [18] of 75.94%, a cell growth promotion [19] of 94.49% and a cell growth promotion [20] of 71.95%. The cell growth promotion [21] was 61.08%, the cell growth promotion [22] was 95.54% and the cell growth promotion [23] was 94.85%. For the same molecule, the cell growth promotion [24] was 75.92%, the cell growth promotion [25] was 77.75% and the cell growth promotion [26] was 76.58%. The cell growth promotion [27] was 76.84%, the cell growth promotion [28] was 72.39% and the cell growth promotion [29] was 101.78%. It also gave a cell growth promotion [30] of 109.03%, a cell growth promotion [31] of 76.47% and a cell growth promotion [32] of 71.57%. For the same molecule, the cell growth promotion [33] was 51.72%, the inhibition at 10 µM [33, 48] was 48.3% and the cell growth promotion [34] was 81.16%. For the same molecule, the cell growth promotion [35] was 84.70%, the cell growth promotion [36] was 93.74% and the cell growth promotion [37] was 94.99%. The cell growth promotion [38] was 79.41%, the cell growth promotion [39] was 68.16% and the cell growth promotion [40] was 95.14%. For the same molecule, the cell growth promotion [41] was 66.01%, the cell growth promotion [42] was 74.45% and the cell growth promotion [43] was 68.62%. For the same molecule, the cell growth promotion [44] was 96.08%, the cell growth promotion [45] was 94.72% and the cell growth promotion [46] was 85.41%. For the same molecule, the cell growth promotion [47] was 109.37%.
